{"source": "patent US4241083A", "about": "“Germicidal composition for agriculture and horticulture” (priority 1978, dated 1980)", "key": {"Botrytis alli": {"tested_on": "Botrytis alli", "assay": "Growth of germs on potato dextrose-agar medium containing the compound (Ex. 3)", "type": "cell-based", "parameters": "key: +++: extremely much growth; ++: much growth; +: a little growth; -: no growth", "conditions": "two weeks, 25° C.", "protocol": "(§1) Ethyl 2-(2-hydroxyethylamino)-3-benzoylpropionate hydrochloride was added to potato dextrose-agar culture medium in the concentration indicated in Table 1 and the suspensions of various kinds of germs were dropped on the culture medium. After incubation of the germs for two weeks in thermostat (25° C.), the growing conditions were observed.\n(§2) In Table 1, +++, ++, + and - represent \"extremely much growth\", \"much growth\", \"a little growth\" and \"no growth\" respectively."}, "Cladosporium fulvum": {"tested_on": "Cladosporium fulvum", "assay": "Growth of germs on potato dextrose-agar medium containing the compound (Ex. 5)", "type": "cell-based", "parameters": "key: +++: extremely much growth; ++: much growth; +: a little growth; -: no growth", "conditions": "two weeks, 25° C.", "protocol": "as §1, §2"}, "Alternaria solani": {"tested_on": "Alternaria solani", "assay": "Growth of germs on potato dextrose-agar medium containing the compound (Ex. 6)", "type": "cell-based", "parameters": "key: +++: extremely much growth; ++: much growth; +: a little growth; -: no growth", "conditions": "two weeks, 25° C.", "protocol": "as §1, §2"}, "[1]": {"tested_on": "Colletotrichum lagenarium", "assay": "Growth of germs on potato dextrose-agar medium containing the compound (Ex. 9, germ of anthracnose on cucumbers)", "type": "cell-based", "parameters": "key: +++: extremely much growth; ++: much growth; +: a little growth; -: no growth", "conditions": "two weeks, 25° C.", "protocol": "as §1, §2\n^1 Germ of anthracnose on cucumbers"}, "[2]": {"tested_on": "Colletotrichum lagenarium", "assay": "Growth of germs on potato dextrose-agar medium containing the compound (Ex. 10, germ of anthracnose on watermelons)", "type": "cell-based", "parameters": "key: +++: extremely much growth; ++: much growth; +: a little growth; -: no growth", "conditions": "two weeks, 25° C.", "protocol": "as §1, §2\n^2 Germ of anthracnose on watermelons"}, "Phomopsis vexans": {"tested_on": "Phomopsis vexans", "assay": "Growth of germs on potato dextrose-agar medium containing the compound (Ex. 11)", "type": "cell-based", "parameters": "key: +++: extremely much growth; ++: much growth; +: a little growth; -: no growth", "conditions": "two weeks, 25° C.", "protocol": "as §1, §2"}, "Valsa ceratosperma [3]": {"tested_on": "Valsa ceratosperma", "assay": "Length of disease spots on cut apple branches immersed in germicide before inoculation (Ex. 16)", "type": "in vivo", "conditions": "25° C.", "protocol": "(§3) Branches of Delicious apple (branch diameter: about 1 cm. thick) grown for 1-2 years were cut to 10 cm. length. The cut branches were dried in a low temperature chamber (3° C.) until the water content of the cut branches became 50%. The dried cut branches were immersed in an aqueous solution of ethyl 2-(2-hydroxyethylamino)-3-benzoylpropionate hydrochloride (500 ppm, 1000 ppm and 2500 ppm) for one minute and then dried.\n(§4) Each cut branch was end bored by a white heated 8 mm diameter cork borer. Valsa ceratosperma, previously cultured for four days on a potato dextrose-agar culture medium, was introduced into the branch by inoculating the branch with the Valsa ceratosperma containing culture by means of the sterilized cork borer. The branches prepared in this way were placed on wet filter paper spread in a polyethylene tray. The tray was inserted into a polyethylene bag which was sealed and then the bag was put into a thermostat (25° C.) for various controlled times.\n(§5) After removal from the thermostat, the length of disease spots on each branch was measured.\nA similar experiment for comparison was carried out using Benomyl, i.e. methyl-1-(buthylcarbamoyl)-2-benzimidazole carbamate as the germicide. The results of the comparative experiment and also a control experiment, in which the dried cut branches were not immersed in germicide (blank), are also shown in Table 2."}, "Valsa ceratosperma [4]": {"tested_on": "Valsa ceratosperma", "assay": "Length of disease spots on apple branches treated on the third day after inoculation (Ex. 17)", "type": "in vivo", "conditions": "1000 ppm on third day after inoculation", "protocol": "as §3, §4, §5\nThe same experiment as in Example 16 was carried out except that the apple branches were treated with the germicides (1000 ppm) on the third day after the branches were inoculated with the germ. The lengths of disease spots on the third day […], fifth day and seventh day were 5.1 mm, 5.2 mm and 5.2 mm respectively."}}, "data": [{"compound": "CCOC(=O)C(CC(=O)c1ccccc1)NCCO.Cl", "note": "(stereo not drawn) [Ethyl 2-(2-hydroxyethylamino)-3-benzoylpropionate hydrochloride]", "values": [{"measurement": "growing conditions (growth of germ)", "setting": "Botrytis alli; 10 ppm", "result": "+"}, {"measurement": "growing conditions (growth of germ)", "setting": "Botrytis alli; 20 ppm", "result": "-"}, {"measurement": "growing conditions (growth of germ)", "setting": "Botrytis alli; 50 ppm", "result": "-"}, {"measurement": "growing conditions (growth of germ)", "setting": "Botrytis alli; 100 ppm", "result": "-"}, {"measurement": "growing conditions (growth of germ)", "setting": "Botrytis alli; 200 ppm", "result": "-"}, {"measurement": "growing conditions (growth of germ)", "setting": "Cladosporium fulvum; 10 ppm", "result": "++"}, {"measurement": "growing conditions (growth of germ)", "setting": "Cladosporium fulvum; 20 ppm", "result": "-"}, {"measurement": "growing conditions (growth of germ)", "setting": "Cladosporium fulvum; 50 ppm", "result": "-"}, {"measurement": "growing conditions (growth of germ)", "setting": "Cladosporium fulvum; 100 ppm", "result": "-"}, {"measurement": "growing conditions (growth of germ)", "setting": "Cladosporium fulvum; 200 ppm", "result": "-"}, {"measurement": "growing conditions (growth of germ)", "setting": "Alternaria solani; 10 ppm", "result": "++"}, {"measurement": "growing conditions (growth of germ)", "setting": "Alternaria solani; 20 ppm", "result": "-"}, {"measurement": "growing conditions (growth of germ)", "setting": "Alternaria solani; 50 ppm", "result": "-"}, {"measurement": "growing conditions (growth of germ)", "setting": "Alternaria solani; 100 ppm", "result": "-"}, {"measurement": "growing conditions (growth of germ)", "setting": "Alternaria solani; 200 ppm", "result": "-"}, {"measurement": "growing conditions (growth of germ)", "setting": "[1]; 10 ppm", "result": "+++"}, {"measurement": "growing conditions (growth of germ)", "setting": "[1]; 20 ppm", "result": "-"}, {"measurement": "growing conditions (growth of germ)", "setting": "[1]; 50 ppm", "result": "-"}, {"measurement": "growing conditions (growth of germ)", "setting": "[1]; 100 ppm", "result": "-"}, {"measurement": "growing conditions (growth of germ)", "setting": "[1]; 200 ppm", "result": "-"}, {"measurement": "growing conditions (growth of germ)", "setting": "[2]; 10 ppm", "result": "++"}, {"measurement": "growing conditions (growth of germ)", "setting": "[2]; 20 ppm", "result": "++"}, {"measurement": "growing conditions (growth of germ)", "setting": "[2]; 50 ppm", "result": "-"}, {"measurement": "growing conditions (growth of germ)", "setting": "[2]; 100 ppm", "result": "-"}, {"measurement": "growing conditions (growth of germ)", "setting": "[2]; 200 ppm", "result": "-"}, {"measurement": "growing conditions (growth of germ)", "setting": "Phomopsis vexans; 10 ppm", "result": "+"}, {"measurement": "growing conditions (growth of germ)", "setting": "Phomopsis vexans; 20 ppm", "result": "-"}, {"measurement": "growing conditions (growth of germ)", "setting": "Phomopsis vexans; 50 ppm", "result": "-"}, {"measurement": "growing conditions (growth of germ)", "setting": "Phomopsis vexans; 100 ppm", "result": "-"}, {"measurement": "growing conditions (growth of germ)", "setting": "Phomopsis vexans; 200 ppm", "result": "-"}, {"measurement": "Length of disease spot", "setting": "Valsa ceratosperma [3]; 500 ppm, after 3 days", "result": 0, "unit": "mm"}, {"measurement": "Length of disease spot", "setting": "Valsa ceratosperma [3]; 500 ppm, after 5 days", "result": 0, "unit": "mm"}, {"measurement": "Length of disease spot", "setting": "Valsa ceratosperma [3]; 500 ppm, after 7 days", "result": 0.2, "unit": "mm"}, {"measurement": "Length of disease spot", "setting": "Valsa ceratosperma [3]; 1000 ppm, after 3 days", "result": 0, "unit": "mm"}, {"measurement": "Length of disease spot", "setting": "Valsa ceratosperma [3]; 1000 ppm, after 5 days", "result": 0, "unit": "mm"}, {"measurement": "Length of disease spot", "setting": "Valsa ceratosperma [3]; 1000 ppm, after 7 days", "result": 0, "unit": "mm"}, {"measurement": "Length of disease spot", "setting": "Valsa ceratosperma [3]; 2500 ppm, after 3 days", "result": 0, "unit": "mm"}, {"measurement": "Length of disease spot", "setting": "Valsa ceratosperma [3]; 2500 ppm, after 5 days", "result": 0, "unit": "mm"}, {"measurement": "Length of disease spot", "setting": "Valsa ceratosperma [3]; 2500 ppm, after 7 days", "result": 0, "unit": "mm"}, {"measurement": "lengths of disease spots", "setting": "Valsa ceratosperma [4]; fifth day", "result": 5.2, "unit": "mm"}, {"measurement": "lengths of disease spots", "setting": "Valsa ceratosperma [4]; seventh day", "result": 5.2, "unit": "mm"}, {"measurement": "lengths of disease spots", "setting": "Valsa ceratosperma [4]; third day", "result": 5.1, "unit": "mm"}]}]}
